Laboratory results: patent US8134015B2, “Compound inhibiting in vivo phosphorous transport and medicine containing the same” (Kyowa Hakko Kirin Co., Ltd., priority 2003, dated 2012)

Biological target: T1, rat NaPi-2b (Rattus norvegicus, UniProt Q9JJ09)
T1 construct: expressed in transfected cells; host or cells: Xenopus oocytes injected with cRNA
T1 sequence (Q9JJ09 1-695): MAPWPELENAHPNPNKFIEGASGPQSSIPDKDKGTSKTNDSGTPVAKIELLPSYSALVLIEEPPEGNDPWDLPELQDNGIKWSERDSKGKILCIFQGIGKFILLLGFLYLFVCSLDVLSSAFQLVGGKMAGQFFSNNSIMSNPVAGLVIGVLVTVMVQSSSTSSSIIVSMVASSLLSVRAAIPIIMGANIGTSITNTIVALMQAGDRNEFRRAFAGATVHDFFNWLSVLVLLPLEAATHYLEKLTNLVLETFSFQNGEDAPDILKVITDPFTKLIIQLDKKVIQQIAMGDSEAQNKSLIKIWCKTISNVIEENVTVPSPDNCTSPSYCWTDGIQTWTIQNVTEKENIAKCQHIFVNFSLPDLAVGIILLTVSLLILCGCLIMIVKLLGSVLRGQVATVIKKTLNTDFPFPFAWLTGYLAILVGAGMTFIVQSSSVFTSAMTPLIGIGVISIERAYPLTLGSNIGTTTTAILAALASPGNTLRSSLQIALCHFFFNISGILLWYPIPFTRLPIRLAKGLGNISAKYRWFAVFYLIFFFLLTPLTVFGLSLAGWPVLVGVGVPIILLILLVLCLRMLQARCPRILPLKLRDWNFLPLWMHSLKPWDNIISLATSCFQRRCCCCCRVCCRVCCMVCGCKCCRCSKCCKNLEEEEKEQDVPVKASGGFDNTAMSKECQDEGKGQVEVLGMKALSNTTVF
Assay: Sodium-dependent phosphate uptake of Xenopus oocytes which expressed NaPi-2b (32P)
Type: cell-based
Conditions: for IC50: Xenopus oocytes expressing rat NaPi-2b, 32P radioactive phosphorus, read-out: IC50 (phosphate uptake inhibitory activity)
How it was run: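 Rat NaPi-2b cloned from small-intestine cDNA; cRNA injected into Xenopus oocytes, expression for 2 days. Phosphate uptake inhibition measured with 32P; percent inhibition at 300 μM and 100 μM read from the same inhibition curve.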

[1] = phosphate uptake, oocytes expressing rat NaPi-2b, determined from inhibition curve

IC50 | Compound | further results
 | Cc1csc(C(=O)N/N=C/c2cccc(F)c2)c1NC(=O)c1cccc(CSc2nc[nH]n2)c1 [Compound 524, N-[2-(3-Fluoro-benzylidene-hydrazinocarbonyl)-4-methyl-thiophen-3-yl]-3-(1H-[1,2,4]triazol-3-ylsulfanylmethyl)-benzamide] | inhibition at 300 µM [1]: 42.8%
 | Cc1ccc(CNNC(=O)c2cc(Cl)ccc2NC(=O)c2cccc(CSc3ccncc3)c2)cc1C [Compound 366, N-{4-Chloro-2-[N′-(3,4-dimethyl-benzyl)-hydrazinocarbonyl]-phenyl}-3-(pyridin-4-ylsulfanylmethyl)-benzamide] | inhibition at 300 µM [1]: 69.9%
1.13 µM | Cc1ccc(/C=N/NC(=O)c2cc(Br)ccc2NC(=O)c2ccc(CN(CC(C)O)CC(C)O)cc2)cc1C (stereo not shown) [Compound 303, 4-{[Bis-(2-hydroxy-propyl)-amino]-methyl}-N-[4-bromo-2-(3,4-dimethyl-benzylidene-hydrazinocarbonyl)-phenyl]-benzamide] | 
0.2 µM | CC(O)CN(Cc1cccc(C(=O)Nc2ccc(N3CCCCC3)cc2C(=O)NN=Cc2ccc(Cl)c(C(F)(F)F)c2)c1)CC(C)O (stereo not shown) [Compound 942, 3-{[Bis-(2-hydroxy-propyl)-amino]-methyl}-N-[2-(4-chloro-3-trifluoromethyl-benzylidene-hydrazinocarbonyl)-4-piperidin-1-yl-phenyl]-benzamide] | 
 | Cc1ccc(/C=N/NC(=O)c2cc(N3CCCC(C(=O)O)C3)ccc2NC(=O)c2cccc(CSCCO)c2)cc1C (stereo not shown) [Compound 934, 1-{3-(3,4-Dimethyl-benzylidene-hydrazinocarbonyl)-4-[3-(2-hydroxy-ethylsulfanylmethyl)-benzoylamino]-phenyl}-piperidine-3-carboxylic acid] | inhibition at 300 µM [1]: 39.3%
12.1 µM | Cc1cccc(/C=N/NC(=O)c2cc(Cl)ccc2NC(=O)c2ccncc2)c1 [Compound 191, N-[4-Chloro-2-(3-methyl-benzylidene-hydrazinocarbonyl)-phenyl]-isonicotinamide] | 
29.8 µM | CCN(CC)Cc1cccc(C(=O)Nc2sc(CN3CCCCC3)c(C)c2C(=O)N/N=C/c2ccc(Cl)c(C(F)(F)F)c2)c1 [Compound 956, N-[3-(4-Chloro-3-trifluoromethyl-benzylidene-hydrazinocarbonyl)-4-methyl-5-piperidin-1-ylmethyl-thiophen-2-yl]-3-diethylaminomethyl-benzamide] | 
< 3 µM | CCN(CCO)Cc1cccc(C(=O)Nc2ccc(Cl)cc2C(=O)N/N=C/c2ccc(Cl)c(C(F)(F)F)c2)c1 [Compound 427, N-[4-Chloro-2-(4-chloro-3-trifluoromethyl-benzylidene-hydrazinocarbonyl)-phenyl]-3-{[ethyl-(2-hydroxy-ethyl)-amino]-methyl}-benzamide] | 
22.4 µM | Cc1cccc(/C=N/NC(=O)c2cc(Br)ccc2NC(=O)c2ccc(CNCCN3CCOCC3)cc2)c1 [Compound 283, N-[4-Bromo-2-(3-methyl-benzylidene-hydrazinocarbonyl)-phenyl]-4-[(2-morpholin-4-yl-ethylamino)-methyl]-benzamide] | 
2.13 µM | O=C(Nc1ccc(Br)cc1C(=O)N/N=C/c1ccc(Cl)c(C(F)(F)F)c1)c1ccc(CN2CCN(CC(=O)N3CCOCC3)CC2)cc1 [Compound 306, N-[4-Bromo-2-(4-chloro-3-trifluoromethyl-benzylidene-hydrazinocarbonyl)-phenyl]-4-[4-(2-morpholin-4-yl-2-oxo-ethyl)-piperazin-1-ylmethyl]-benzamide] | 
7.81 µM | CCN(CC)CCN(CCN(CC)CC)Cc1cccc(C(=O)Nc2ccc(N3CCCCC3)cc2C(=O)N/N=C/c2ccc(OC)cc2)c1 [Compound 910, 3-{[Bis-(2-diethylamino-ethyl)-amino]-methyl}-N-[2-(4-methoxy-benzylidene-hydrazinocarbonyl)-4-piperidin-1-yl-phenyl]-benzamide] | 
< 3 µM | CN(C)CCn1nnnc1SCc1cccc(C(=O)Nc2ccc(Cl)cc2C(=O)N/N=C/c2cccc(F)c2)c1 [Compound 462, N-[4-Chloro-2-(3-fluoro-benzylidene-hydrazinocarbonyl)-phenyl]-3-[1-(2-dimethylamino-ethyl)-1H-tetrazol-5-ylsulfanylmethyl]-benzamide] | 
< 1 µM | Cc1ccc(/C=N/NC(=O)c2cc(Cl)ccc2NC(=O)c2ccccn2)cc1C [Compound 363, Pyridin-2-carboxylic acid [4-chloro-2-(3,4-dimethyl-benzylidene-hydrazinocarbonyl)-phenyl]-amide] | 
< 3 µM | CCN(CC)CCN(C)Cc1cccc(C(=O)Nc2ccc(I)cc2C(=O)N/N=C/c2cccc(OC)c2)c1 [Compound 478, 3-{[(2-Diethylamino-ethyl)-methyl-amino]-methyl}-N-[4-iodo-2-(3-methoxy-benzylidene-hydrazinocarbonyl)-phenyl]-benzamide] | 
1.18 µM | CC(O)CN(Cc1cccc(C(=O)Nc2ccc(F)cc2C(=O)N/N=C/c2ccc(Cl)c(C(F)(F)F)c2)c1)CC(C)O (stereo not shown) [Compound 857, 3-{[Bis-(2-hydroxy-propyl)-amino]-methyl}-N-[2-(4-chloro-3-trifluoromethyl-benzylidene-hydrazinocarbonyl)-4-fluoro-phenyl]-benzamide] | 
< 3 µM | CCN(CC)CCN(C)Cc1cccc(C(=O)Nc2ccc(I)cc2C(=O)N/N=C/c2cccc(F)c2)c1 [Compound 472, 3-{[(2-Diethylamino-ethyl)-methyl-amino]-methyl}-N-[2-(3-fluoro-benzylidene-hydrazinocarbonyl)-4-iodo-phenyl]-benzamide] | 
1.45 µM | CCN(CC)CCNCc1ccc(C(=O)Nc2ccc(Br)cc2C(=O)N/N=C/c2cccc(F)c2)cc1 [Compound 296, N-[4-Bromo-2-(3-fluoro-benzylidene-hydrazinocarbonyl)-phenyl]-4-[(2-diethylamino-ethylamino)-methyl]-benzamide] | 
5.48 µM | COc1cc(OC)cc(C(=O)Nc2ccc(Br)cc2C(=O)N/N=C/c2ccc(F)cc2)c1 [Compound 115, N-[4-Bromo-2-(4-fluoro-benzylidene-hydrazinocarbonyl)-phenyl]-3,5-dimethoxy-benzamide] | 
2.04 µM | O=c1c2c3c(sc2nc(-c2cccc(CSc4nc[nH]n4)c2)n1/N=C/c1ccc(F)cc1)CCCC3 [Compound 648, 3-[(4-Fluoro-benzylidene-)-amino]-2-[3-(1H-[1,2,4]triazol-3-ylsulfanylmethyl)-phenyl]-5,6,7,8-tetrahydro-3H-benzo[4,5]thieno[2,3-d]pyrimidin-4-one] | 
< 3 µM | CCN(CCO)Cc1cccc(C(=O)Nc2ccc(Cl)cc2C(=O)N/N=C/c2ccc(F)cc2)c1 [Compound 423, N-[4-Chloro-2-(4-fluoro-benzylidene-hydrazinocarbonyl)-phenyl]-3-{[ethyl-(2-hydroxy-ethyl)-amino]-methyl}-benzamide] | 
 | O=C(Nc1ccc(N2CCC(CO)CC2)cc1C(=O)N/N=C/c1ccc(Cl)c(C(F)(F)F)c1)c1cccc(CSCCO)c1 [Compound 1063, N-[2-(4-Chloro-3-trifluoromethyl-benzylidene-hydrazinocarbonyl)-4-(4-hydroxymethyl-piperidin-1-yl)-phenyl]-3-(2-hydroxy-ethylsulfanylmethyl)-benzamide] | inhibition at 100 µM (phosphate uptake, oocytes expressing rat NaPi-2b, 100 μM, determined from inhibition curve): 63.9%
 | COc1ccc(/C=N/NC(=O)c2cc(Br)ccc2NC(=O)c2ccc(CN3CCN(c4ccccn4)CC3)cc2)cc1 [Compound 777, N-[4-Bromo-2-(4-methoxy-benzylidene-hydrazinocarbonyl)-phenyl]-4-(4-pyridin-2-yl-piperazin-1-ylmethyl)-benzamide] | inhibition at 300 µM [1]: 34.2%
